Assay [1] relates to stop codons UGA N, UAG N, and UAA N. As to the kind of experiment: dual luciferase (p2luc) stop codon readthrough assay in HEK293 cells. The assay is classed as cell-based, human. Particulars: for concentration at which maximal levels of stop codon readthrough were observed: aminoglycoside in growth media for 24 hours; for readthrough of UAA A stop codon: UAA A construct, tissue culture (HEK293). An excerpt: The p2luc dual luciferase reporter plasmid system, as described in U.S. Pat. No. 6,143,502, was used to measure the effect of aminoglycosides on stop codon readthrough in tissue culture cells. In this system, the renilla (sea pansy) luciferase and firefly luciferase reporter coding sequences are located on either side of a stop codon (FIG. 1). Stop codon and control constructs (containing a sense codon in place of the stop codon) are transfected in parallel in tissue culture cells. Expression of the upstream renilla luciferase gene provides a way to normalize for differences in transfection efficiencies, translation initiation, and mRNA levels between transfected cultures. […] M. R. Culbertson, RNA surveillance. Unforeseen consequences for gene expression, inherited generic disorders and cancer, 15 Trends Genet. 74-80 (1999). The ability of the dual reporter system to control for differences in mRNA levels between normal and nonsense-containing sequences provides a distinct advantage compared with single reporter or direct protein analysis. After normalization, the differences in downstream firefly luciferase activities between cultures transfected with the stop codon and control sense codon constructs reflect the frequency of stop codon readthrough.
(§1) The stop codons of SEQ ID NO: 1 through SEQ ID NO: 12 and SEQ ID NO: 25 were cloned between the two luciferase genes of p2luc, and control reporter plasmids (SEQ ID NO: 13-24) were produced by changing the first nucleotide of the stop codon to a C. More particularly, complimentary oligonucleotides corresponding to the sequences SEQ ID NO: 1 through SEQ ID NO: 25 were synthesized on an Applied Biosystems model 380C synthesizer (Foster City, Calif.) such that when annealed, they would have SalI- and BamHI-compatible ends. The oligonucleotides were ligated in SalI- and BamHI-digested p2luc vector according to methods well known in the art and transformed to Escherichia coli strain SU1675. DNA sequences were verified by autothermocycler sequencing, and plasmids were purified using the Qiagen Midiprep Kit (Valencia, Calif.) according to the manufacturer's specifications.
The oligonucleotides corresponding to SEQ ID NO: 1 through SEQ ID NO: 12 were identical except for nucleotides 13-16, which contained in-frame stop codons followed by a C, T, A, or G nucleotide. The oligonucleotides corresponding to SEQ ID NO: 13 through SEQ ID NO: 24 were the respective controls, which were identical to the oligonucleotides corresponding to SEQ ID NO: 1 through SEQ ID NO: 12 except the first nucleotide of the stop codon was replaced with a C nucleotide, thus changing the stop codon to a sense codon. The oligonucleotide corresponding to SEQ ID NO: 25 comprises the sequence surrounding the mdx mouse dystrophin mutation.
Translational readthrough of the stop codons of oligonucleotides corresponding to SEQ ID NO: 1 through SEQ ID NO: 12 was determined in a human embryonic kidney cell line (HEK293, e.g., ATCC CRL-1573) grown in the presence of varying amounts of G-418, gentamicin, and paromomycin, which have been particularly effective in inducing stop codon readthrough in yeast. A. Singh et al., Phenotypic suppression and misreading Saccharomyces cerevisiae, 277 Nature 146-148 (1979); E. Palmer et al., Phenotypic suppression of nonsense mutants in yeast by aminoglycoside antibiotics, 277 Nature 148-150 (1979). HEK293 cells were maintained as monolayer cultures growing in Dulbecco's Modified Eagle Medium with 1,000 mg/L of D-glucose, L-glutamine, pyridoxine hydrochloride, and 110 mg/L of sodium pyruvate supplemented with 10% fetal bovine serum and 50 units/ml penicillin/50 µg/ml streptomycin. All cells were incubated at 37° C. in an atmosphere of 5% CO2. All media, penicillin, and streptomycin were obtained from LifeTechnologies (Rockville, Md.); aminoglycosides were purchased from Sigma (St Louis, Mo.); and all sera were obtained from HyClone (Logan, Utah). […]

Assay [2] concerns cystic fibrosis transmembrane conductance regulator (CFTR) protein. As to conditions: bronchial cell line carrying a nonsense mutation in the CFTR gene; cited from earlier work.
Another assay has as its system overall translation. Put plainly: inhibition of translation monitored by reduction in renilla luciferase activity in control transfections. The assay is classed as cell-based, human. As to conditions: highest concentration tested, HEK293 control transfections. On the procedure: Transfections were performed using lipofectamine reagent (LifeTechnologies). HEK293 cells (0.15×10^5)were plated in 0.34-cm^2 wells and grown for 24 to 48 hours according to methods well known in the art. All cells were transfected with 0.3 μl of lipofectin and 0.075 μg of plasmid DNA for 15 hours, in serum-free media. Fresh media with serum and varying levels of aminoglycosides (Sigma) were then added, and incubation continued for 24 hours.
(§2) Cells were lysed using passive lysis buffer (Promega, Madison, Wis., and both renilla and firefly luciferase activities were determined using the dual luciferase reporter assay (Promega) on a Dynatech MLX Microtiter Plate Luminometer (Burlington, Mass.). For all reactions, light emission was measured for 2 to 12 seconds after 100μl of luminescence substrate was injected. Stop codon readthrough was calculated by comparing the ratio of firefly to renilla luciferase activity in cultures transfected with p2luc stop codon constructs and compared with ratios obtained from cultures transfected with p2luc control constructs.
A significant difference in stop codon readthrough induced by the aminoglycosides was observed between UGA, UAG, and UAA. […] The nucleotide in the fourth position immediately after the stop codon also contributed to the frequency of stop codon readthrough. This effect is particularly obvious for UGA N, where N=C>U>A≧G in order of most to least stop codon readthrough. […] Inhibition of translation was monitored by examining the reduction in renilla luciferase activity in control transfections.

Another assay relates to dystrophin. As to conditions: cited from earlier work.
Assay [3] concerns mdx premature stop codon / UGA C control. Put plainly: dual luciferase stop codon readthrough assay in mouse myoblast C2C12 cell line. In kind it is cell-based.
Text: as §1, with “DNA sequences were verified by autothermocycler sequencing, and plasmids were purified using the Qiagen Midiprep Kit (Valencia, Calif.) according to the manufacturer's specifications.” left out
as §2, with “constructs. […]” for “constructs.”

Regarding `CN[C@@H]1[C@@H](O)[C@@H](O[C@@H]2[C@@H](O)[C@H](O[C@H]3O[C@H]([C@@H](C)O)[C@@H](O)[C@H](O)[C@H]3N)[C@@H](N)C[C@H]2N)OC[C@]1(C)O` [G-418], in assay [1] (HEK293 cells), the “stop codon readthrough on a mass basis, comparison of the three aminoglycosides” value is given as “induced the most readthrough on a mass basis” and the “concentration at which maximal levels of stop codon readthrough were observed” value amounted to 0.4 mg/mL. Moreover, the “readthrough of UAA A stop codon” value in assay [1] is “approximately 1%”. Besides, the “expression of CFTR protein” value in assay [2] is recorded as “restore the expression”. Further, the “reduction in overall translation” value in the assay with overall translation was roughly 50%.

As for gentamicin, in the assay with dystrophin, the “effect on premature stop codon in the dystrophin gene of the mdx mouse” value is “can partially reverse the effects of a premature stop codon”. Besides, the “full-length dystrophin protein expressed on aminoglycoside treatment” value with dystrophin (mdx mouse) was 10 to 20%. For the same compound, in assay [1], the “readthrough of UAA A stop codon” value was “approximately 1%”. Besides, the “expression of CFTR protein” value in assay [2] is “restore the expression”. The “reduction in overall translation” value with overall translation is reported as roughly 20%. The “gentamicin-induced readthrough of mdx sequence in C2C12 cells compared with UAA A construct in HEK293 cells” value in assay [3] was “No increase”.

Take `NC[C@@H]1O[C@H](O[C@H]2[C@@H](O)[C@H](O[C@@H]3[C@@H](O)[C@H](N)C[C@H](N)[C@H]3O[C@H]3O[C@H](CO)[C@@H](O)[C@H](O)[C@H]3N)O[C@@H]2CO)[C@H](N)[C@@H](O)[C@@H]1O` [paromomycin]: in assay [1] (HEK293 cells), the “concentration at which maximal levels of stop codon readthrough were observed” value turned out to be 2 mg/mL. The “readthrough of UAA A stop codon” value in assay [1] is on record as “approximately 1%”. Moreover, the “reduction in overall translation” value in the assay on overall translation is listed as “little effect on translation”.

Source of the values: patent US20030049666A1, “Tissue culture assay for measuring drug induced translational recoding at premature stop codons and frameshift mutations” (University of Utah, priority 2001, published 2003).
